Results on ten molecules are retold here after patent publication US9873694B2, “Imidazole quinoline-based immune system modulators” (Janus Biotherapeutics, Inc., priority 2011, dated 2018).

The target in test [1] is T1, TLR9 (Mus musculus, UniProt Q9EQU3).
T1 construct: Male C57Bl/6J mice, at ˜8 weeks of age from Jackson Laboratories were used; tissue Jackson Laboratories; host or cells: whole animal, male C57Bl/6J mouse
T1 sequence (Q9EQU3 26-1032): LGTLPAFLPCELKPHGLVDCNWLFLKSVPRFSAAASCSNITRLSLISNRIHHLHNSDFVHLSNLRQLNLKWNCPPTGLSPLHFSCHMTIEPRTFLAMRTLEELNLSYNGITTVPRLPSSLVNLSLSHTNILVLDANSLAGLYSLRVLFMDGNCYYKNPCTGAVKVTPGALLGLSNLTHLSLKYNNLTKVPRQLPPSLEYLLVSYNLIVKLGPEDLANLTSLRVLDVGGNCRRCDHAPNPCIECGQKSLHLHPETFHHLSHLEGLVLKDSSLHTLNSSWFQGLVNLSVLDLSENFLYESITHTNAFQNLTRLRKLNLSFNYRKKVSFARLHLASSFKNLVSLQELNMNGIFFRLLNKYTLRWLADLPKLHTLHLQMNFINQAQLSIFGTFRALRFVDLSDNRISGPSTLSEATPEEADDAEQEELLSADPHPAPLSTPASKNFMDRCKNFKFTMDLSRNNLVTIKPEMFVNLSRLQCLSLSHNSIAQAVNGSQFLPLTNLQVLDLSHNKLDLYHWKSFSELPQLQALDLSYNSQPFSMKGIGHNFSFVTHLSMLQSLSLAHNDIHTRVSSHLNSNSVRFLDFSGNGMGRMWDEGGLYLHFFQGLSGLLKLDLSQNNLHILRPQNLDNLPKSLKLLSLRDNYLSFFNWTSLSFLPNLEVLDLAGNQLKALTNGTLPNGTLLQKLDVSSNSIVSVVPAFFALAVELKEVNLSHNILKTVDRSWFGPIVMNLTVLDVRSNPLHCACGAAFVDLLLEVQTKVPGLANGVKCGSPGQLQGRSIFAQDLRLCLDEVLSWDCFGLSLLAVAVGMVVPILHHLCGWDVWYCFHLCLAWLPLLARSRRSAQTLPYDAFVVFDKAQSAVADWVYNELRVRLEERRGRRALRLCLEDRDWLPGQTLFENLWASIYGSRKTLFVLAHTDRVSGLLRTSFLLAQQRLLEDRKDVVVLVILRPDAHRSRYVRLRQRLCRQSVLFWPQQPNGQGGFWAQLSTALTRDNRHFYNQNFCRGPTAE
Put plainly: In vivo TLR antagonism: serum IL-12 after CpG ODN 1668 TLR9 agonist injection, single intraperitoneal dose to male C57Bl/6 mice. Also on record: species or system C57Bl/6J mouse. The settings on record: male C57Bl/6J mice; test article i.p. at T=0 hr; CpG ODN 1668 i.p. at T=1 hr; serum IL-12 ELISA at T=4 hr; doses 400 ug to 10 ug. How it is done: The Effects of test articles on Toll-Like Receptor (TLR) Knockdown Following a Single Intraperitoneal Dose to Male C57Bl/6 Mice.
Toll-Like Receptor (TLR) knockdown effect of test articles was evaluated in a C57Bl/6J mouse. Primary end points included a terminal blood collection for analysis of cytokine production in response to CpG-DNA TLR9 agonist injection. Male C57Bl/6J mice, at ˜8 weeks of age from Jackson Laboratories were used. Test groups were 3 mice per treatment group and the groups were administered test article in a series of descending doses within the range of 400 ug to 10 ug. Test article treatment was dosed at T=0 hr by intraperitoneal injection. Agonist (CpG ODN 1668) treatment was dosed one hour later, T=1 hr by intraperitoneal injection. Necropsy was performed 3 hours post agonist treatment, T=4 hr. Blood samples were collected into serum separator tubes, allowed to clot at room temperature for at least 20 minutes, centrifuged at ambient temperature at 3000 g for 10 minutes, and the serum was extracted. ELISA was performed to determine murine IL-12 levels following manufacture's protocol (BioLegend Inc.). Serum IL-12 levels were calculated and plotted versus administered dose of antagonist and inhibitory dose at 50% (ID50) was determined.
(In general: An ELISA detects its analyte on a solid surface through an enzyme-linked reagent.)

Test [2] deals with T2, human TLR9 (hTLR9) (Homo sapiens, UniProt Q9NR96).
T2 construct: host or cells: HEK293 (HEK-Blue-hTLR9)
T2 sequence (Q9NR96 26-1032): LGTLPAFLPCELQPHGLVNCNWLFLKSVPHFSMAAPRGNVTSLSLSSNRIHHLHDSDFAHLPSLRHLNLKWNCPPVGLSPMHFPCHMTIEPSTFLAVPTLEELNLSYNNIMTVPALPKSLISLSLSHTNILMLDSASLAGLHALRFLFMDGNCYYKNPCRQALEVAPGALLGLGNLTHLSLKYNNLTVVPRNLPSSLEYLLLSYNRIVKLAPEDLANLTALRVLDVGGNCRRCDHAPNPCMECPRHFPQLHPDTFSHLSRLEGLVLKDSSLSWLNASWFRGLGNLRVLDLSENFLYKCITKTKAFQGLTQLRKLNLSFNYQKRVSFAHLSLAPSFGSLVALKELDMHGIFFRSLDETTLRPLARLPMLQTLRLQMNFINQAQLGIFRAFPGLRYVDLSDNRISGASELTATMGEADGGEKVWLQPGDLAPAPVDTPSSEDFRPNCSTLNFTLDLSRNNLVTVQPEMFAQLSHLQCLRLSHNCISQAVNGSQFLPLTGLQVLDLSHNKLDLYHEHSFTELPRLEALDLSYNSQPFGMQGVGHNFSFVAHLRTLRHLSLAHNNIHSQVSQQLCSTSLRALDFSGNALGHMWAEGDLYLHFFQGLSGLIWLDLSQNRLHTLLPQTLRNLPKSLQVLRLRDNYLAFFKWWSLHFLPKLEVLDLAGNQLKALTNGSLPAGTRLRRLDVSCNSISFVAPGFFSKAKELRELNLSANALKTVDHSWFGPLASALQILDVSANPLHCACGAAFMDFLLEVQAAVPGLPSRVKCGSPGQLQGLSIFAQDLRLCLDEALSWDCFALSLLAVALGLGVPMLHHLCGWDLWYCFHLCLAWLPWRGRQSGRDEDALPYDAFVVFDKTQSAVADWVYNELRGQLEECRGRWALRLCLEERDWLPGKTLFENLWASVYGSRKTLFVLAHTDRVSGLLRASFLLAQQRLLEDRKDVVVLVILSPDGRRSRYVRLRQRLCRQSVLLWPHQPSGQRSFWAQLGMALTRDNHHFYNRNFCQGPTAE
Kind of test: TLR9 antagonist assay (HEK-Blue-hTLR9 cells, NF-kB/AP-1 driven SEAP reporter, ODN 2006 agonist). It is filed as cell-based. The conditions noted are these: 1 hour compound pre-incubation, then hTLR9 agonist (such as ODN 2006, 1 uM) overnight, SEAP read at 620 nm, 4 parameter Hill fit, read-out: hTLR9 antagonism IC50. An excerpt:
HEK-Blue™-hTLR9 cells were obtained from InvivoGen Inc. and used to determine test compound antagonism of human TLR9 (hTLR9) driven responses. HEK-Blue™-hTLR9 cells are designed for studying the stimulation of human TLR9 by monitoring the activation of NF-kB. As described by the manufacturer, “HEK-Blue™-hTLR9 cells were obtained by co-transfection of the hTLR9 gene and an optimized secreted embryonic alkaline phosphatase (SEAP) reporter gene into HEK293 cells. The SEAP reporter gene is placed under the control of the IFN-b minimal promoter fused to five NF-kB and AP-1 binding sites. Stimulation with a TLR9 ligand activates NF-kB and AP-1 which induces the production of SEAP. Levels of SEAP can be easily determined with QUANTI-Blue™ a detection medium that turns purple/blue in the presence of alkaline phosphatase”.
A cell suspension of HEK-Blue™-hTLR9 cells at ˜450,000 cells per ml in test medium which contained 5% (v/v) heat inactivated FBS was prepared. 180 ul of cell suspension (˜80,000 cells) was added per well of a flat-bottom 96-well plate and place in an incubator at 37° C. for overnight.
Test compounds were serially diluted in test medium, generally starting at 10 uM, and diluting by 3 fold in a 96 well master plate. 20 ul of diluted test compound was transferred using a 12 channel multi-channel pipet to the cell plate and incubated at 37° C. for 1 hour. Then 20 ul of an hTLR9 agonist (such as ODN 2006, 1 uM) was added to each well and the plate incubated at 37° C. overnight.
Invivogen's QUANTI-Blue™ was prepared following the manufacturer's instructions. […] of resuspended QUANTI-Blue™ was added per well of a flat bottom 96-well plate. 20 ul per well of induced HEK-Blue™-hTLR9 cells supernatant was then added to the plate and the plate was incubated at 37° C. for 1-3 h. SEAP levels were determined using a spectrophotometer at 620 nm.
The concentration dependent inhibition of hTLR9 dependent SEAP production was expressed as the concentration of compound which produced half the maximal level of SEAP induced by the hTLR agonist alone. Percent activity was calculated for each observation using the formula: % activity=((observed O.D.−background O.D.)/(agonist only O.D.−background O.D.))*100. The 50% inhibitory concentration (IC50) (Table 3) was calculated by using a 4 parameter Hill plot sigmoidal curve fit where the inflection point of the sigmoidal curve is defined as the point of 50% activity.

The structures appear in SMILES notation.

The term IC50 denotes the point on the concentration scale where inhibition reaches its midpoint. Turning to `CN(C)CCN(C)c1nc2ccccc2c2c1ncn2CCN(C)C` [Compound 67], the “In vivo TLR antagonism ID50 (inhibitory dose at 50% of serum IL-12)” value in test [1] came out at 1262 µg. In addition, the IC50 in test [2] was determined as 143 nM.

Regarding `CN(C)CCN(C)c1nc2ccccc2c2c1nc(O)n2CCc1c[nH]cn1` [Compound 69], the IC50 in test [2] was determined as 1650 nM. Turning to `CCOCc1nc2c(N(C)CCN(C)C)nc3ccccc3c2n1CCN(C)C` [Compound 61], the IC50 in test [2] was determined as 389 nM. On the same count and under the same terms, in the case of `CCOCc1nc2c(N(C)CCN(C)C)nc3ccccc3c2n1CCN1CCOCC1` [Compound 60] it was 3410 nM; in that of `CCOCc1nc2c(N(C)CCN(C)C)nc3ccccc3c2n1CCOCCO` [Compound 63], 3350 nM.

`CCOCc1nc2c(N(C)CCN(C)C)nc3ccccc3c2n1CCN1CCN(C)CC1` [Compound 65]: the “In vivo TLR antagonism ID50 (inhibitory dose at 50% of serum IL-12)” value in test [1] was 67 µg. Besides, the concentration for half-maximal inhibition (IC50) in test [2] worked out at 56 nM. As for `CCOCc1nc2c(N3CCN(C)CC3)nc3ccccc3c2n1CCN(C)C` [Compound 62], the half-inhibitory concentration (IC50) in test [2] worked out at 713 nM. Same read-out and setting: in the case of `CCOCc1nc2c(N3CCN(C)CC3)nc3ccccc3c2n1CCN1CCN(C)CC1` [Compound 66] it was 323 nM.

For the molecule `CCOCc1nc2c(N3CCN(C)CC3)nc3ccccc3c2n1CCOCCO` [Compound 64], the IC50 in test [2] worked out at 6690 nM. In the case of `CN(C)CCN(C)c1nc2ccccc2c2c1nc(O)n2CCN(C)C` [Compound 68], the “In vivo TLR antagonism ID50 (inhibitory dose at 50% of serum IL-12)” value in test [1] worked out at 280 µg. In addition, the IC50 in test [2] was 136 nM.
